Source: a melting point compilation (Tetko et al.; mined from patent text by program, amines drawn as free bases though some values may be those of a salt)

Compared with `c1ccc(-c2cc3nnc(-c4ccccc4)n3nc2OCc2cscn2)cc1`, `CCOC(=O)Nc1nc(-c2ccccc2)c(-c2nc3ccccc3c(=O)n2-c2cccc(OC)c2)s1` is lower in melting point: 236 °C for the first, 204 to 205 °C for the second.

First: CC(C)(C)NC(=O)[C@@H]1CCCN1C(=O)[C@@H](O)[C@H](Cc1ccccc1)NC(=O)[C@H](CC(N)=O)NCc1ccccc1
Second: CCOc1noc(C(=O)OCc2ccccc2)c1CC(NC(=O)OC(C)(C)C)C(=O)OCc1ccccc1 (racemic)
The melting point of the first is lower: 96 to 99 °C for the first, 142 to 144 °C for the second.

First: CNC(=O)NC(=O)C(CC1CCCC1)c1ccc(S(C)(=O)=O)c(Br)c1 (configuration not stated)
Second: NS(=O)(=O)c1cccc2c1S(=O)(=O)CC2
The melting point of the first is higher: 259 to 260 °C for the first, 215 to 217 °C for the second.

First: CC(C)(C)OC(=O)N[C@H]1CC[C@H](CC(=O)O)CC1
Second: COC(=O)c1c(OCc2ccccc2)ccc2c1CC[C@H](NC(C)C)[C@@H]2O (relative stereo)
The melting point of the first is higher: 161 to 163 °C for the first, 91 to 92 °C for the second.

First: O=C(O)c1ccc2c(c1)C(=O)N(c1ccccc1)C2=O
Second: COc1cccc(N(CC(=O)O)C(=O)CN2C(=O)c3ccccc3C2=O)c1
The melting point of the first is higher: 257 to 258 °C for the first, 198 °C for the second.

Going from `CC1(C)CC(O)C(C)(C)c2cc(Cn3cccn3)c(/C=C/c3ccc(C(=O)O)cc3)cc21` (configuration not stated) to `CCN(CC)c1ccc(-c2cc(-c3ccc(C(=O)O)cc3)ccc2O)cc1C(F)(F)F`, the melting point falls from 242 °C to 195 °C.

Compared with `N#Cc1nn(-c2c(Cl)cc(C(F)(F)F)cc2Cl)c(N)c1-c1ccoc1S(=O)C(F)(F)F` (configuration not stated), `CC(C)(C)c1cc(Oc2c(Cl)cc(C(F)(F)F)cc2Cl)n[nH]1` is higher in melting point: 141 to 142 °C for the first, 170 to 172 °C for the second.

First: COc1ccc2c(c1)C1(C)CC(=O)N(C)C1(O)CC2 (configuration not stated)
Second: COc1ccc(Cn2c(=O)[nH]c3ccc(C)cc3c2=O)cc1
The melting point of the first is lower: 182 to 186 °C for the first, 263 to 265 °C for the second.

First: Nc1ncc(-c2cccc(F)c2)nc1C(=O)Nc1cccnc1
Second: CC(=NNC(N)=O)c1ccc(Nc2nccc(-c3cccnc3)n2)cc1
The melting point of the first is lower: 234 to 238 °C for the first, 256 to 258 °C for the second.

First: CCOC(=O)c1ccccc1NC(=O)CNc1ccccc1F
Second: O=C(Cc1ccccc1I)Nc1ccccc1I
The melting point of the first is lower: 79 to 81 °C for the first, 160 to 163 °C for the second.

Compared with `Cc1cc(C)nc(NC#N)n1`, `COc1cc(C)nc(-c2ccc(C=O)cc2)n1` is lower in melting point: 205 °C for the first, 125 to 126 °C for the second.

First: CC(C)Cc1ccc(CCCN(C)[C@H]2CC[C@H](c3ccc4[nH]c(=O)oc4c3)CC2)cc1
Second: COc1nc(C)cnc1N(C(=O)OCC(C)C)S(=O)(=O)c1cccnc1-c1ccc(CC(C)C)cc1
The melting point of the first is higher: 162 to 165 °C for the first, 133 to 137 °C for the second.

First: COc1ccc(-c2nncn2-c2ccccc2)cc1
Second: CN(C)CCOc1ccc(-c2nnc(CSCCOc3ccccc3)o2)cc1
The melting point of the first is higher: 139 to 140 °C for the first, 62 to 64 °C for the second.

First: CCN(CC)S(=O)(=O)c1cc(Br)c(N)c(Br)c1
Second: CS(=O)c1cccc(S(N)(=O)=O)c1 (configuration not stated)
The melting point of the first is lower: 186 to 187 °C for the first, 217 to 221 °C for the second.

First: CCOC(=O)c1oc2cccc(CCO)c2c1C
Second: COC(=O)C1=C(C)NC(C)=C(C(=O)O)C1c1cccc([N+](=O)[O-])c1 (configuration not stated)
The melting point of the first is lower: 88 to 90 °C for the first, 196 to 197 °C for the second.

First: COc1cc(-c2cnc3[nH]cc(C(=O)C(C)(C)CO)c3n2)cc(OC)c1OC
Second: CCOc1cc2cc(C(=O)OC)c(C(=O)OC)c(-c3ccnc(Cl)c3)c2cc1OC
The melting point of the first is higher: 227 to 229 °C for the first, 205 to 208 °C for the second.

Compared with `O=C1OC(=O)[C@H](Cc2ccccc2)C[C@H]1Cc1ccccc1`, `O=C(COc1ccccc1Br)c1ccccc1` is lower in melting point: 172 to 174 °C for the first, 112 to 113 °C for the second.

First: N#Cc1ccc(-c2ccc3nc(-c4ccc(C#N)cc4)cn3c2)cc1
Second: O=C(O)c1ccc(-c2ccc(I)cc2)cc1
The melting point of the first is lower: 292 to 294 °C for the first, 303 to 305 °C for the second.

First: CCOC(=O)C(=NOC1CCCCC1)c1csc(N)n1
Second: O=C(Oc1ccccc1)[C@H]1O[C@@H]1C1CCCCC1
The melting point of the first is higher: 125 to 126 °C for the first, 59 to 60 °C for the second.

First: CC(C)c1cc(C(=O)Nc2ccc(C(=O)O)c(Cl)c2)sc1C(C)C
Second: O=C(Nc1ccc(Cl)c(Cl)c1)NS(=O)(=O)c1ccc2c(c1)C(O)CO2 (configuration not stated)
The melting point of the first is higher: 222 to 223 °C for the first, 109 to 112 °C for the second.

First: CNc1nc(-c2cccc(C(=O)Nc3ccccc3)c2)c2cc(OC)c(OC)cc2n1
Second: COc1ccc(-c2cc(NC(=O)Nc3ccc(N(CCCl)CCCl)cc3)c3cc(OC)ccc3n2)cc1
The melting point of the first is higher: 242 to 244 °C for the first, 112 to 113 °C for the second.

First: O=[N+]([O-])c1ccc(F)c(Br)c1F
Second: CCCCCCOc1ccc(F)c(C(N)=O)c1Cl
The melting point of the first is lower: 50 to 51.5 °C for the first, 66 to 68 °C for the second.

First: O=C(Cc1cccc2ccccc12)N(O)[C@H](CN1CCCC1)c1ccccc1
Second: CC(Cc1cccc([N+](=O)[O-])c1)(NC(=O)CN1C(=O)c2ccccc2C1=O)c1ccccc1 (configuration not stated)
The melting point of the first is lower: 81 to 83.5 °C for the first, 172 to 173 °C for the second.

Compared with `CCCCc1nc(CCC)nn1Cc1ccc(-c2ccccc2-c2nnn[nH]2)cc1`, `CC(C)Cn1c(CO)c(-c2ccc(Cl)cc2)c2cc(OCc3ccccc3)ccc2c1=O` is lower in melting point: 170 °C for the first, 87 to 88 °C for the second.

First: CCn1c(=O)c2[nH]c(/C=C/c3cc4c(cc3Br)OCO4)nc2n(CC)c1=O
Second: CCCn1c(=O)c2[nH]c(C3(N)CCCCC3)nc2n(CCC)c1=O
The melting point of the first is higher: > 270 °C for the first, 172 to 173 °C for the second.

Compared with `CCOC(=O)C1=CC(=O)N=N1`, `CCOC(=O)c1cc(C#N)c(C=O)nc1NC(C)CC` (configuration not stated) is lower in melting point: 235 to 238 °C for the first, 37 to 38 °C for the second.

Compared with `CN1CCN(c2cc(Cl)cc3c2c(=O)n(Cc2cccc(F)c2)c(=O)n3Cc2ccccc2)CC1`, `CC(c1oc2ccccc2c(=O)c1-c1cccc(F)c1)n1nc(-c2ccc(N3CCOCC3)nc2)c2c(N)ncnc21` (configuration not stated) is higher in melting point: 148 to 150 °C for the first, 269 to 271 °C for the second.

First: O=C(O)CCCCNCc1cc2cc3c(cc2c2cc(OCc4ccccc4)ccc12)OCO3
Second: Cc1ccc(-c2cccc3c2CC(CNC(=O)OCc2ccccc2)O3)cc1 (configuration not stated)
The melting point of the first is higher: 197 to 199 °C for the first, 134 to 136 °C for the second.

First: NC1=CN(Cc2ccc(Cl)cc2)CN=C1
Second: NC(=O)c1ccc(Cn2ccc(NC(=S)NCC(F)(F)F)n2)cc1
The melting point of the first is lower: 128 to 129 °C for the first, 205 to 206 °C for the second.

Compared with `Cc1ccc(S(=O)(=O)ON=C2CCCc3c2ccc(OCc2ccccc2)c3N(C)C(=O)OCc2ccccc2)cc1`, `COC(=O)C(c1ccc(OCCNC(=O)C2Cc3ccccc3N2S(=O)(=O)c2ccc(-c3cc(C(F)(F)F)ccc3Cl)cc2)cc1)C(C)C` (configuration not stated) is lower in melting point: 158 to 160 °C for the first, 68 to 75 °C for the second.

First: CC(NC(Nc1ccc(Cl)cc1)=C(C#N)S(C)(=O)=O)C(C)(C)C (configuration not stated)
Second: N#CC1(Nc2ccc(Cl)cc2)CCN(C(=O)c2cc(C(F)(F)F)cc(C(F)(F)F)c2)CC1
The melting point of the first is lower: 160 to 162 °C for the first, 176 to 180 °C for the second.

First: CCCCCCCCCCCCCCOc1cc(C)ccc1C
Second: Cc1ccc2oc(=O)c(=O)oc2c1
The melting point of the first is lower: 36.9 to 37.9 °C for the first, 121 to 123 °C for the second.

First: COC(=O)c1[nH]c2c(C)ccc(C)c2c1C(=O)OC
Second: Cc1cc(-c2c3ccccc3c(C)c3sc4ccccc4c23)cc(C)c1OCC(=O)O
The melting point of the first is lower: 143 to 144 °C for the first, 155 to 181 °C for the second.

First: O=C(Nc1cc(-c2ccccc2)on1)Nc1cccc2c1C1CCCCN1C2=O (configuration not stated)
Second: Cc1cccc(Nc2nc(-c3cc(-c4ccccc4)no3)cs2)n1
The melting point of the first is lower: 248 °C for the first, 291 to 293 °C for the second.

Compared with `Cc1ccc(F)cc1C1CC(=O)CC(=O)C1`, `Cc1c(C)n(-c2ccccc2)c2ncn(C)c(=O)c12` is higher in melting point: 175 to 176 °C for the first, 207 to 208 °C for the second.

Compared with `CC1(C)CC(=O)c2c(S(C)(=O)=O)sc(-c3cc[nH]n3)c2C1`, `Cc1nc2cc3c(cc2c(=O)n1COC(=O)C(C)(C)C)C(=O)CC3` is lower in melting point: 213 to 216 °C for the first, 203 to 205 °C for the second.

`CCOC(=O)CCc1c[nH]c2cnc(-n3cnnc3)cc12` and `Cc1nnc(OC(=O)N2CCN(C)CC2)n1-c1ccc(Cl)cn1` cannot be ordered by melting point: 215 to 218 °C for the first, 214 to 216 °C for the second.

First: Cn1c(-c2ccc(N3CCOCC3)cc2)cnc1[C@H](Cc1ccccn1)N(C=O)c1nc2cc(Cl)ccc2s1
Second: O=C(Cc1cccnc1)N1CCC(C2=c3ccc(Cl)cc3=CCc3c(Cl)ccnc32)CC1
The melting point of the first is lower: 96 to 99 °C for the first, 100 to 103 °C for the second.

Compared with `Cc1n[nH]c2c(O)ncnc12`, `Fc1cccc(Cl)c1CNc1ncnc2nsnc12` is lower in melting point: 340 °C for the first, 224 to 226 °C for the second.

Compared with `COc1cc(CN2CCN(C[C@@H](C)O)CC2)ccc1-c1nc2c(N[C@H]3[C@@H](C(N)=O)[C@@H]4C=C[C@H]3C4)c(Cl)cnc2[nH]1`, `O=C(Nc1cccc(C(F)(F)F)c1)N1CCN(Cc2ccc(Nc3ccnc4cc(C(F)(F)F)ccc34)cc2)CC1` is higher in melting point: 157 to 159 °C for the first, 198 to 200 °C for the second.

Compared with `O=[N+]([O-])c1cccc(S(=O)(=O)NCCc2ccncc2)c1`, `Cc1ncccc1-c1nc(C(F)(F)F)cn1-c1ccc(S(N)(=O)=O)cc1` is higher in melting point: 138 °C for the first, 235 to 237 °C for the second.

Compared with `CS(=O)(=O)c1ccc(-c2nc(C(F)(F)F)nc(Cl)c2-c2ccc(Cl)cc2)cc1`, `CS(=O)(=O)c1ccc(-c2nn(CC#N)c(C(F)(F)F)c2-c2ccc(F)cc2)cc1` is higher in melting point: 188 to 190 °C for the first, 192 to 194 °C for the second.

First: Cc1cc(N)cnc1Oc1ccc(Cl)c(C(F)(F)F)c1
Second: COC(=O)Cc1ccc2nc(C(F)(F)F)cc(Cl)c2c1
The melting point of the first is lower: 92 to 94 °C for the first, 108 to 109 °C for the second.

Compared with `COc1cc(-c2ccccc2C)ccc1C(=O)N1Cc2ccc(C(=O)N(C)CC(O)C(O)C(O)C(O)CO)n2Cc2ccccc21` (configuration not stated), `O=C1c2ccccc2C(=O)N1CCc1cccc(N2C(=O)N(c3c(Cl)cccc3Cl)Cc3cnc(Nc4ccccc4)nc32)c1` is lower in melting point: 144 to 146 °C for the first, 142 °C for the second.

Compared with `Nc1ccccc1-c1ncco1`, `Nc1cscc1NC(=S)Nc1c(Cl)cccc1Cl` is higher in melting point: 31 to 32 °C for the first, 165 °C for the second.

Going from `Nc1cc(Cl)c(Br)c(Cl)c1` to `CCOC(=O)Nc1cc(OCC)cc2c1CC(C)O2` (configuration not stated), the melting point falls from 132 °C to 64 °C.

First: CC(C(=O)NO)c1ccc(C(=O)c2cccs2)cc1 (configuration not stated)
Second: COC(=O)CSCc1cccc(-c2nc(=O)c3ccccc3s2)n1
The melting point of the first is higher: 144 °C for the first, 108 to 110 °C for the second.

First: CC1SC(=O)NN=C1c1ccc2c(c1)C(=Cc1ccccc1[N+](=O)[O-])C(=O)N2 (configuration not stated)
Second: Cc1ccc2c(c1)c1cc(-c3ccc(O)cc3)c(=O)n(C)c1n2C
The melting point of the first is lower: 258 °C for the first, > 280 °C for the second.

With `Cc1ccc2cccc(OCc3c(Cl)ccc(S(=O)(=O)N(CCCCN(C(=O)OC(C)(C)C)C(=O)OC(C)(C)C)C(C)(C)C)c3Cl)c2n1` the melting point was 172 to 175 °C.
